Tests used:
MK3 = molecular target: T1, MK3 (Homo sapiens, UniProt Q16644); experiment: Eurofins kinase selectivity profile, MK3; type: biochemical
T1 construct: purchased Eurofins (Celle Lévescault)
Experimental: (§1) Subsequently, to ascertain whether the high potency of compound 11 was specific for MK2, an additional 380 human recombinant protein kinases were screened.
(§2) To assess the impact of various compounds on MK2 kinase activity, we utilized the ADP‐Glo Assay Kit (Promega) following the manufacturer's instructions. Luminescence measurements were taken using a SpectraMax Paradigm reader. The inhibition percentage was calculated using the following formula: ((specific signalDMSO control − specific signal inhibitor)/(specific signalDMSO control)) × 100%. The IC50 values were determined employing dose–response curve fitting via Prism (Graph Pad). Additionally, Eurofins company (Celle Lévescault) conducted the analysis on compound 11’s inhibitory activity against 380 other human recombinant kinases at various concentrations.

p70S6Kb = molecular target: T2, p70S6Kb (Homo sapiens, UniProt Q9UBS0); experiment: Eurofins kinase selectivity profile, p70S6Kb; type: biochemical
T2 construct: purchased Eurofins (Celle Lévescault)
Experimental: as §1, §2

MK5 = molecular target: T3, MK5 (Homo sapiens, UniProt Q8IW41); experiment: Eurofins kinase selectivity profile, MK5; type: biochemical
T3 construct: purchased Eurofins (Celle Lévescault)
T3 sequence (Q8IW41 1-473): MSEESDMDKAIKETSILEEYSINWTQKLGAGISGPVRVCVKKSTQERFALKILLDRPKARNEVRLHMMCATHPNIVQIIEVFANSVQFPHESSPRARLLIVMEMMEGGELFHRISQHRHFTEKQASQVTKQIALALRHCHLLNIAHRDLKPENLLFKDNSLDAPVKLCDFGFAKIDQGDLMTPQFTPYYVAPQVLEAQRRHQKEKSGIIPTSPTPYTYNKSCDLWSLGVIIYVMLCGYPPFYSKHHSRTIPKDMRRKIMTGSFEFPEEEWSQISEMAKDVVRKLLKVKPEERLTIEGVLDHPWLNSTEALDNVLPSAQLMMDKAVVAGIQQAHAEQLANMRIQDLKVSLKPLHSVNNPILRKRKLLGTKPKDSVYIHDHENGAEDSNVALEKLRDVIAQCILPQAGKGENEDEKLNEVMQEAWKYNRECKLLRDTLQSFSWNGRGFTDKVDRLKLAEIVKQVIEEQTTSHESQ
Experimental: as §1, §2

[1] = tested on: IL-6 and TNF-α secretion by RAW264.7 cells; experiment: Cytokine production by ELISA in LPS-stimulated RAW264.7; type: cell-based, mouse; conditions: LPS-stimulated RAW264.7, 24 h
Experimental: FIGURE 4 Targeting cellular MK2 signaling with irreversible inhibition by compound 11. (A and B) RT‐PCR analysis of IL‐1β, TNF‐α, and IL‐6 expression in Lipopolysaccharides (LPS)‐stimulated THP‐1 (A) and RAW264.7 (B) Cells, with pre‐treatment of compound 11 for 3 h followed by LPS (3 h) stimulation. (C) The inhibitory effects of compound 11 on TNF‐α and IL‐6 production in LPS‐stimulated RAW264.7 macrophages for 24 h, measured by ELISA. (D and E) Compound 11, alongside CC‐99677 and PF‐3644022, suppressed MK2 pathway activation, validated through western blot analysis post‐LPS stimulation. Cells were preincubated with the specified compounds for 1 h prior to LPS stimulation (100 ng/mL, 30 min). (F) Distinguishes the mode of action between compound 11 and CC‐99677. The complex structure of a small molecule and MK2 (3R2Y) with the same parent nucleus as compound 11 is shown in cyans, and the complex structure of a small molecule and MK2 (3FYJ) with the same parent nucleus as CC‐99677 is shown in orange. (G–I) The effect of indicated inhibitor on Hsp27 phosphorylation following inhibitor washout. […]
Following collection and centrifugation of the cell culture media, supernatants were harvested and the levels of cytokine secretion were evaluated using specific ELISA kits (absin), following the manufacturer's protocol.

MC38 tumor = experiment: In vivo antitumor evaluation in MC38 tumor model; design: species or system C57BL/6 mice
Experimental: C57BL/6 mice, aged 6 weeks, were house and cared for in a controlled, specific pathogen‐free environment. MC38 tumor cells (3.5 × 10[5] in 100 µL) were administered to the mice via subcutaneous injection into the right flanks. Upon reaching a tumor volume between 50 and 100 mm^3, mice were randomized and assigned to either the vehicle control group or the specified treatment group (n = 7/group). The details regarding the administration of inhibitors and the measurement of tumors are delineated in the Supporting Information Methods.
The mice then received intraperitoneal injections of either the vehicle control or compound 11 (at dosages of 25 or 50 mg/kg) twice daily for 10 days. Tumor size was gauged every three days with a microcaliper, and the tumor volume (TV) was estimated using the formula: TV = (length × width^2)/2. Additionally, the individual Tumor Growth Inhibition value (TGI) was assessed on the last day of the experiment for mice treated with the drug in comparison to those treated with the vehicle. The formula used was 100 × {1 - [(VTreated Final day -VTreated Day 0)/(VControl Final day -VControl Day 0)].

[2] = Cell viability assay (CCK-8), CT26; type: cell-based; conditions: mouse, CT26 cells (colorectal carcinoma), CT26, murine colorectal carcinoma, read-out: IC50 (μM) mean ± SD, cytotoxicity
Experimental: (§3) In cellular experiments, cells are seeded into either 6-well or 96-well plates and incubated overnight, proceeding with treatments as described in the figure legends or methods section. The cell inoculation numbers are outlined as follows: For assays measuring cell viability, between 3,000 to 5,000 cells are seeded per well in 96-well plates. For other cellular assays, the seeding density ranges from 5×10^5 to 1×10^6 cells per well in 6-well plates.
(§4) Cells was plated into 96-well plates and incubated overnight prior to introduction of varying concentrations of compounds or control solvent. Following a 72-hour exposure period, cell viability was determined using a Cell Counting Kit-8 assay (Life-iLab, China). Dose-response curves were fitted using a four-parameter method facilitated by SoftMax Pro, which was subsequently used for the computation of IC50 values.

[3] = Cell viability assay (CCK-8), H1437; type: cell-based; conditions: H1437 cells (non-small cell lung carcinoma), H1437, human non-small cell lung carcinoma, read-out: IC50 (μM) mean ± SD, cytotoxicity
Experimental: as §3, §4

[4] = Cell viability assay (CCK-8), MIA Paca-2; type: cell-based; conditions: MIA Paca-2 cells (pancreatic carcinoma), MIA Paca-2, human pancreatic carcinoma, read-out: IC50 (μM) mean ± SD, cytotoxicity
Experimental: as §3, §4

T1 sequence (Q16644 whole entry): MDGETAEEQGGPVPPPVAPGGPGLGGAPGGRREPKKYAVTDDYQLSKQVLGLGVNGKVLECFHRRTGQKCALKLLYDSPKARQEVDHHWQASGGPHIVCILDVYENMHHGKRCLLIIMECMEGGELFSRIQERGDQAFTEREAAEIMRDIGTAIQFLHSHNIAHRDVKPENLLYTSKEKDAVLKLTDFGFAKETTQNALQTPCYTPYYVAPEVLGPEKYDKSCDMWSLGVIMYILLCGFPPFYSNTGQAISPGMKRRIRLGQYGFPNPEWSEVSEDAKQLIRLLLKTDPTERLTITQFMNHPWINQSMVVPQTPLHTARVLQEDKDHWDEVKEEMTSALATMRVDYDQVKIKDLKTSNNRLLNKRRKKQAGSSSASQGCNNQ
T2 sequence (Q9UBS0 whole entry): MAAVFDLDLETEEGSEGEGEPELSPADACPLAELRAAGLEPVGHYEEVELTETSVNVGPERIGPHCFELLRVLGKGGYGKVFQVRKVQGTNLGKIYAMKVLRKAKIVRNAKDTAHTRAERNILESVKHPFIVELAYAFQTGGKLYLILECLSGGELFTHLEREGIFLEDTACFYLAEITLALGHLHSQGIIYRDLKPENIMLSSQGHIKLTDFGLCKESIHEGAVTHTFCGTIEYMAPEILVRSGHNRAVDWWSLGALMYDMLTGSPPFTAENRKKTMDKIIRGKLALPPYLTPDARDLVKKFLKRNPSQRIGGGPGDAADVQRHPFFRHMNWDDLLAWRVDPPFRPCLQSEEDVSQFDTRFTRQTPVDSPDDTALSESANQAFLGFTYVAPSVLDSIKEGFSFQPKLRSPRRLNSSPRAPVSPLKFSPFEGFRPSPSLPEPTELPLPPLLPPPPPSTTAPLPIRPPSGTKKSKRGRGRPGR

Compound `C=CC(=O)Nc1cc(-c2cc(-c3cc4c([nH]3)CCNC4=O)ccn2)ccc1OC(F)(F)F` [compound 11] has an IC50 (MK3) of over 100 nM, an inhibition at 0.001 µM (MK3; MAPKAP-K3(h), 1 nM, read-out: Inhibition rate) of -10% and an inhibition at 0.01 µM (MK3; MAPKAP-K3(h), 10 nM, read-out: Inhibition rate) of 1%. For the same compound, the inhibition at 0.1 µM (MK3; MAPKAP-K3(h), 100 nM, read-out: Inhibition rate) was 12%, the IC50 (p70S6Kb) was over 1000 nM and the inhibition at 0.01 µM (p70S6Kb; p70S6K(h), 10 nM, read-out: Inhibition rate) was -9%. The inhibition at 0.1 µM (p70S6Kb; p70S6K(h), 100 nM, read-out: Inhibition rate) was -16%, the inhibition at 1 µM (p70S6Kb; p70S6K(h), 1000 nM, read-out: Inhibition rate) was -6% and the IC50 (MK5) was over 100 nM. It also gave an inhibition at 0.001 µM (MK5; MAPKAP-K5/PRAK(h), 1 nM, read-out: Inhibition rate) of -21%, an inhibition at 0.01 µM (MK5; MAPKAP-K5/PRAK(h), 10 nM, read-out: Inhibition rate) of 6% and an inhibition at 0.1 µM (MK5; MAPKAP-K5/PRAK(h), 100 nM, read-out: Inhibition rate) of 29%. For the same compound, the “effect on secretion level of IL-6 and TNF-α” value [1] was “similarly reduced”, the “tumor growth inhibition rate (TGI)” value (MC38 tumor; 25 mg/kg bid x10, ip) was 47.5% and the “tumor growth inhibition rate (TGI)” value (MC38 tumor; 50 mg/kg bid x10, ip) was 64.0%. The IC50 at 72 h [2] was 47.2 ± 2.4 µM, the IC50 at 72 h [3] was 33.4 ± 0.6 µM and the IC50 at 72 h [4] was 47.8 ± 2.8 µM.
